The results in this text go back to US12065436B2, “Cardiac sarcomere inhibitors” (Cytokinetics, Inc., priority 2018, dated 2024).

This assay deals with bovine cardiac myofibrils (full-length cardiac myosin ATPase in the native sarcomere) (Bos taurus (Bovine), UniProt Q9BE39). Briefly: Skinned bovine cardiac myofibril ATPase assay (PK/LDH-coupled). Format: biochemical. To be noted: Ca2+ activating to 75% of maximal rate; for CDMF75 IC15: concentration giving 15% inhibition; for IC50: read-out: CDMF75 IC50. The gist of the method:
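Inhibition of steady-state ATPase read at 340 nm through a PK/LDH-coupled NADH system (0.5 mM NADH, 1.5 mM PEP). Detergent-skinned bovine cardiac myofibrils, 1 mg/mL, were tested at pH 6.8 in PIPES/MgCl2 with 50 μM ATP and calcium adjusted to give pCa50 or pCa75 activation.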

Chain of bovine cardiac myofibrils (full-length cardiac myosin ATPase in the native sarcomere) (Q9BE39 whole entry): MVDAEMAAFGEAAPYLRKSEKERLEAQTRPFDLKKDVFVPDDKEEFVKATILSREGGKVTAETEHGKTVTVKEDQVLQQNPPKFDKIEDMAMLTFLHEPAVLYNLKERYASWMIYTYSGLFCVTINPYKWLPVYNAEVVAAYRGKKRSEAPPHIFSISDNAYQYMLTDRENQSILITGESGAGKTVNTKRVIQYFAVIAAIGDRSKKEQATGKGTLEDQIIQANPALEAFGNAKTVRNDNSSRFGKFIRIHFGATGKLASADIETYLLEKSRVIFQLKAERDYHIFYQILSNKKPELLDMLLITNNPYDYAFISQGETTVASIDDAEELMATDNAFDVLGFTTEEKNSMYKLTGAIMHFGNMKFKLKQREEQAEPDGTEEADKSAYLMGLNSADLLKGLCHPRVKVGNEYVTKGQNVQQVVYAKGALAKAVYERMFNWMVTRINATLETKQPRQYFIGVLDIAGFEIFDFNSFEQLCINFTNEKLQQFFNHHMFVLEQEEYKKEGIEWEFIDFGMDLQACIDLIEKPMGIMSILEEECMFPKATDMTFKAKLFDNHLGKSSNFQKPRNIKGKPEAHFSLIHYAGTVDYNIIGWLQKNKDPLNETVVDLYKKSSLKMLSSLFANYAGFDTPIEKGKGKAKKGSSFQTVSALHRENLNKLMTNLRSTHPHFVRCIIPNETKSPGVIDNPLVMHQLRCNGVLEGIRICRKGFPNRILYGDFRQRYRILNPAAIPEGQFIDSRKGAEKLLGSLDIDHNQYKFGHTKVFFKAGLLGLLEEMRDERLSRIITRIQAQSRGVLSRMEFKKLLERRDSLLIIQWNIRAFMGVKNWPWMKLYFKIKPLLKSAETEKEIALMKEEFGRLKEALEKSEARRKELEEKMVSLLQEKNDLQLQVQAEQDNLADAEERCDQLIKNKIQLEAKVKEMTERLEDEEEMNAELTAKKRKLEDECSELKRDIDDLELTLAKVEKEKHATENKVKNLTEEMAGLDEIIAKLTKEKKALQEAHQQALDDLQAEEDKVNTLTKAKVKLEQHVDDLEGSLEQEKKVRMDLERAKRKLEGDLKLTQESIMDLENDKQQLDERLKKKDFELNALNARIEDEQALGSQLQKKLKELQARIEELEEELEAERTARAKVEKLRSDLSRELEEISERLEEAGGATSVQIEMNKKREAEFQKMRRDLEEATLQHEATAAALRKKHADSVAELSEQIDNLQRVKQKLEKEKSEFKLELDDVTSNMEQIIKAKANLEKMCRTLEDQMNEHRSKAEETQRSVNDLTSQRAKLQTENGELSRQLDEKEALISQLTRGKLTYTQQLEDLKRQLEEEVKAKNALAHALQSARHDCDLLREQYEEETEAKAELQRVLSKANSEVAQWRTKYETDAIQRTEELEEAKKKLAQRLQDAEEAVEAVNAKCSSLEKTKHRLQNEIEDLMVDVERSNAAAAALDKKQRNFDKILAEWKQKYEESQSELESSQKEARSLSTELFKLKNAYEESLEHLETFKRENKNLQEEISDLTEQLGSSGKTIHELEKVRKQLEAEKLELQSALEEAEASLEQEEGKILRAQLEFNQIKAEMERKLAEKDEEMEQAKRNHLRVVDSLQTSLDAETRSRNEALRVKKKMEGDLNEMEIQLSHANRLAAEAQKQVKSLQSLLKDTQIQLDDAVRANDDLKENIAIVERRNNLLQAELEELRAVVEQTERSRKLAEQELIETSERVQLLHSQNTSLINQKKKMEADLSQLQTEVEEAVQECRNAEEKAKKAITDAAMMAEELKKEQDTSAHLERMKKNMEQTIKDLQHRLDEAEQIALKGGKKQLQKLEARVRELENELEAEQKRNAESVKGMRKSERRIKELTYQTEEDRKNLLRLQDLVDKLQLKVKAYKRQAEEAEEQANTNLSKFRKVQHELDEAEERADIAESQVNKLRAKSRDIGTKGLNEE
Chain of bovine cardiac myofibrils (full-length cardiac myosin ATPase in the native sarcomere) (P85100 whole entry partner): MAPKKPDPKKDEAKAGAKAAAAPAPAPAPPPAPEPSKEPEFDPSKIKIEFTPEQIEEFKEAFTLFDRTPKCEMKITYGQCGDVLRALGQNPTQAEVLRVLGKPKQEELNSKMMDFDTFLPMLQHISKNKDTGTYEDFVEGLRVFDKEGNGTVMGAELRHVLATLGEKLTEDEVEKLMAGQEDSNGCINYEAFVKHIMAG
Chain of bovine cardiac myofibrils (full-length cardiac myosin ATPase in the native sarcomere) (Q3SZE5 whole entry partner): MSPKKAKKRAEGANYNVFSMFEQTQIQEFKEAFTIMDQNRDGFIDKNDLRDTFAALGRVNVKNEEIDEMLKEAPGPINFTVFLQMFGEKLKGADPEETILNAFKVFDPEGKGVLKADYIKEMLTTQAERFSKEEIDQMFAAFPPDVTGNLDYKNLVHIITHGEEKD

As for `CC(=O)N[C@@H]1COc2cc(-c3noc(C)n3)ccc21` [Compound 450, (S)-N-(6-(5-methyl-1,2,4-oxadiazol-3-yl)-2,3-dihydrobenzofuran-3-yl)acetamide], the “CDMF75 IC15” value came out at 3.2 µM and the IC50 came to 12.4 µM.

Take `Cn1cc(C(=O)NC2CCc3cc(-c4noc(C(F)F)n4)ccc32)cn1` (stereo not shown) [Compound 7, N-(5-(5-(difluoromethyl)-1,2,4-oxadiazol-3-yl)-2,3-dihydro-1H-inden-1-yl)-1-methyl-1H-pyrazole-4-carboxamide]: the “CDMF75 IC15” value came to 1.1 µM and the half-maximal inhibitory concentration (IC50) turned out to be 4.8 µM.

For the compound `Cc1ccnc(-c2ccc3c(c2)CC[C@H]3NC(=O)c2ccnn2C)c1` [Compound 380, (R)-1-methyl-N-(5-(4-methylpyridin-2-yl)-2,3-dihydro-1H-inden-1-yl)-1H-pyrazole-5-carboxamide], the “CDMF75 IC15” value is 2.2 µM and the IC50 is 10.3 µM.

`CC(=O)N[C@@H]1CCc2cc(-c3noc(C(F)F)n3)ccc21` [Compound 286, (R)-N-(5-(5-(difluoromethyl)-1,2,4-oxadiazol-3-yl)-2,3-dihydro-1H-inden-1-yl)acetamide]: the “CDMF75 IC15” value was determined as 2.1 µM and the IC50 was determined as 10.2 µM.

In the case of `COC(=O)c1nc(-c2ccc3c(c2)CCC3NC(=O)c2cn(C)nc2C)no1` (stereo not shown) [Compound 78, methyl 3-(1-(1,3-dimethyl-1H-pyrazole-4-carboxamido)-2,3-dihydro-1H-inden-5-yl)-1,2,4-oxadiazole-5-carboxylate], the “CDMF75 IC15” value was 2.6 µM and the IC50 stood at 13.6 µM.

In the case of `CCc1nc(-c2ccc3c(c2)CC[C@H]3NC(=O)c2cnn(CC(N)=O)c2)no1` [Compound 475, (R)-1-(2-amino-2-oxoethyl)-N-(5-(5-ethyl-1,2,4-oxadiazol-3-yl)-2,3-dihydro-1H-inden-1-yl)-1H-pyrazole-4-carboxamide], the “CDMF75 IC15” value turned out to be 0.9 µM and the IC50 came out at 3.8 µM.

Take `O=C(N[C@@H]1CCc2cc(-c3noc(C(F)F)n3)ccc21)c1ocnc1C(F)(F)F` [Compound 682, (R)-N-(5-(5-(difluoromethyl)-1,2,4-oxadiazol-3-yl)-2,3-dihydro-1H-inden-1-yl)-4-(trifluoromethyl)oxazole-5-carboxamide]: the “CDMF75 IC15” value came out at 0.4 µM and the IC50 is 1.6 µM.

On to `O=C(NC1CCc2cc(-c3noc(C(F)F)n3)ccc21)c1ccnc(O)c1` (stereo not shown) [Compound 95, N-(5-(5-(difluoromethyl)-1,2,4-oxadiazol-3-yl)-2,3-dihydro-1H-inden-1-yl)-2-hydroxyisonicotinamide], for which the “CDMF75 IC15” value was 1.9 µM and the IC50 was 8 µM.

Regarding `O=C(N[C@@H]1CCc2cc(-c3noc(C(F)F)n3)ccc21)N1CCCC1` [Compound 300, (R)-N-(5-(5-(difluoromethyl)-1,2,4-oxadiazol-3-yl)-2,3-dihydro-1H-inden-1-yl)pyrrolidine-1-carboxamide], the “CDMF75 IC15” value stood at 12.3 µM and the IC50 is over 39.2 µM.

For the compound `Cc1cnoc1C(=O)N[C@@H]1CCc2cc(-c3noc(C4CC4)n3)ccc21` [Compound 115, (R)-N-(5-(5-cyclopropyl-1,2,4-oxadiazol-3-yl)-2,3-dihydro-1H-inden-1-yl)-4-methylisoxazole-5-carboxamide], the “CDMF75 IC15” value worked out at 0.3 µM and the IC50 was 0.9 µM.

As to `CCc1nc(-c2ccc3c(c2)CC[C@H]3NC(=O)c2cc(OC)no2)no1` [Compound 635, (R)-N-(5-(5-ethyl-1,2,4-oxadiazol-3-yl)-2,3-dihydro-1H-inden-1-yl)-3-methoxyisoxazole-5-carboxamide], the “CDMF75 IC15” value was found to be 0.3 µM and the IC50 was found to be 1.1 µM.

On to `COCc1nc(-c2ccc3c(c2)CC[C@H]3NC(=O)c2cnn(CCO)c2)no1` [Compound 523, (R)-1-(2-hydroxyethyl)-N-(5-(5-(methoxymethyl)-1,2,4-oxadiazol-3-yl)-2,3-dihydro-1H-inden-1-yl)-1H-pyrazole-4-carboxamide], for which the “CDMF75 IC15” value came out at 2.9 µM and the IC50 came out at 13.3 µM.

In the case of `Cc1ncc(C(=O)N[C@@H]2CCc3cc(-c4noc(C(F)F)n4)ccc32)n1C` [Compound 678, (R)-N-(5-(5-(difluoromethyl)-1,2,4-oxadiazol-3-yl)-2,3-dihydro-1H-inden-1-yl)-1,2-dimethyl-1H-imidazole-5-carboxamide], the “CDMF75 IC15” value turned out to be 0.7 µM and the IC50 turned out to be 2.3 µM.

For the compound `Cn1nccc1C(=O)N[C@@H]1CCc2cc(-c3noc(C4CC4)n3)ccc21` [Compound 241, (R)-N-(5-(5-cyclopropyl-1,2,4-oxadiazol-3-yl)-2,3-dihydro-1H-inden-1-yl)-1-methyl-1H-pyrazole-5-carboxamide], the “CDMF75 IC15” value came out at 0.2 µM and the IC50 stood at 0.8 µM.

`CCc1nc(-c2ccc3c(c2)CC[C@H]3NC(=O)c2ccn(CCOC)n2)no1` [Compound 602, (R)-N-(5-(5-ethyl-1,2,4-oxadiazol-3-yl)-2,3-dihydro-1H-inden-1-yl)-1-(2-methoxyethyl)-1H-pyrazole-3-carboxamide]: the “CDMF75 IC15” value was determined as 4.1 µM and the IC50 came out at 16.9 µM.

`Cc1nc(-c2ccc3c(c2)CCC3NC(=O)c2ncnn2C)no1` (stereo not shown) [Compound 120, 1-methyl-N-(5-(5-methyl-1,2,4-oxadiazol-3-yl)-2,3-dihydro-1H-inden-1-yl)-1H-1,2,4-triazole-5-carboxamide]: the “CDMF75 IC15” value worked out at 2.4 µM and the IC50 turned out to be 9.8 µM.

On to `[2H]C([2H])([2H])c1nc(-c2ccc3c(c2)CC[C@H]3NC(=O)c2cc(C)nn2C)no1` [Compound 247, (R)-1,3-dimethyl-N-(5-(5-(methyl-d3)-1,2,4-oxadiazol-3-yl)-2,3-dihydro-1H-inden-1-yl)-1H-pyrazole-5-carboxamide], for which the “CDMF75 IC15” value came to 0.8 µM and the IC50 is 2.6 µM.

For the compound `Cc1ncoc1C(=O)N[C@@H]1COc2cc(-c3noc(C4(C)CC4)n3)ccc21` [Compound 462, (S)-4-methyl-N-(6-(5-(1-methylcyclopropyl)-1,2,4-oxadiazol-3-yl)-2,3-dihydrobenzofuran-3-yl)oxazole-5-carboxamide], the “CDMF75 IC15” value is 0.4 µM and the IC50 amounted to 1.4 µM.

With `Cc1nc(-c2ccc3c(c2)CC[C@H]3NC(=O)C(F)F)no1` [Compound 435, (R)-2,2-difluoro-N-(5-(5-methyl-1,2,4-oxadiazol-3-yl)-2,3-dihydro-1H-inden-1-yl)acetamide], the “CDMF75 IC15” value was 2.6 µM and the IC50 worked out at 11.3 µM.

On to `CCc1nc(-c2ccc3c(c2)CC[C@H]3NC(=O)c2cccc(C)n2)no1` [Compound 594, (R)-N-(5-(5-ethyl-1,2,4-oxadiazol-3-yl)-2,3-dihydro-1H-inden-1-yl)-6-methylpicolinamide], for which the “CDMF75 IC15” value stood at 1.4 µM and the IC50 was 5.8 µM.

As to `CCc1cc(-c2ccc3c(c2)OC[C@H]3NC(=O)c2ocnc2C)no1` [Compound 424, (S)-N-(6-(5-ethylisoxazol-3-yl)-2,3-dihydrobenzofuran-3-yl)-4-methyloxazole-5-carboxamide], the “CDMF75 IC15” value is 0.2 µM and the IC50 amounted to 0.6 µM.

Consider `CCc1nc(-c2ccc3c(c2)CC[C@H]3NC(=O)C2CCC(=O)N(C)C2)no1` (stereo partly drawn) [Compound 352, N-((R)-5-(5-ethyl-1,2,4-oxadiazol-3-yl)-2,3-dihydro-1H-inden-1-yl)-1-methyl-6-oxopiperidine-3-carboxamide], for which the “CDMF75 IC15” value was 13.0 µM and the concentration for half-maximal inhibition (IC50) is over 39.2 µM.

Turning to `Cc1nc(-c2ccc3c(c2)CCC3NC(=O)Nc2ccncn2)no1` (stereo not shown) [Compound 98, 1-(5-(5-methyl-1,2,4-oxadiazol-3-yl)-2,3-dihydro-1H-inden-1-yl)-3-(pyrimidin-4-yl)urea], the “CDMF75 IC15” value stood at 13.1 µM and the IC50 is over 39.2 µM.

For the compound `Cc1nc(-c2ccc3c(c2)OCC3NC(=O)c2oc(C)nc2C)no1` (stereo not shown) [Compound 159, 2,4-dimethyl-N-(6-(5-methyl-1,2,4-oxadiazol-3-yl)-2,3-dihydrobenzofuran-3-yl)oxazole-5-carboxamide], the “CDMF75 IC15” value turned out to be 1.9 µM and the IC50 was 8.4 µM.

In the case of `CCc1nc(-c2ccc3c(c2)CC[C@H]3NC(=O)c2nnn(C)c2C)no1` [Compound 621, (R)-N-(5-(5-ethyl-1,2,4-oxadiazol-3-yl)-2,3-dihydro-1H-inden-1-yl)-1,5-dimethyl-1H-1,2,3-triazole-4-carboxamide], the “CDMF75 IC15” value turned out to be 1.6 µM and the IC50 turned out to be 6.1 µM.

Regarding `COCCn1cc(C(=O)N[C@@H]2CCc3cc(-c4noc(C(F)F)n4)ccc32)cn1` [Compound 529, (R)-N-(5-(5-(difluoromethyl)-1,2,4-oxadiazol-3-yl)-2,3-dihydro-1H-inden-1-yl)-1-(2-methoxyethyl)-1H-pyrazole-4-carboxamide], the “CDMF75 IC15” value worked out at 1.8 µM and the IC50 was 6.8 µM.

For the compound `CCc1nc(-c2ccc3c(c2)CC[C@H]3NC(=O)c2cocn2)no1` [Compound 587, (R)-N-(5-(5-ethyl-1,2,4-oxadiazol-3-yl)-2,3-dihydro-1H-inden-1-yl)oxazole-4-carboxamide], the “CDMF75 IC15” value came out at 2.5 µM and the IC50 amounted to 12.9 µM.

On to `Cc1cc(C(=O)NC2COc3cc(-c4noc(C)n4)ccc32)n(C)n1` (stereo not shown) [Compound 155, 1,3-dimethyl-N-(6-(5-methyl-1,2,4-oxadiazol-3-yl)-2,3-dihydrobenzofuran-3-yl)-1H-pyrazole-5-carboxamide], for which the “CDMF75 IC15” value came out at 1.0 µM and the 50% inhibitory concentration (IC50) was 4.1 µM.

For the compound `O=C(N[C@@H]1CCc2cc(-c3noc(C(F)F)n3)ccc21)c1ccnc(C(F)F)c1` [Compound 685, (R)-2-(difluoromethyl)-N-(5-(5-(difluoromethyl)-1,2,4-oxadiazol-3-yl)-2,3-dihydro-1H-inden-1-yl)isonicotinamide], the “CDMF75 IC15” value turned out to be 0.7 µM and the IC50 turned out to be 2.6 µM.
